Assay results reported in patent US12263248B2, “Compounds and compositions for intracellular delivery of therapeutic agents” (ModernaTX, Inc., priority 2018, dated 2025).
Where two headings read alike, the source gives them in different places.

Experiments:
hEPO mRNA [1] = test: hEPO expression after intravenous administration to rats; type: in vivo, rat; settings: for hEPO expression: 6 h, i.v.; for hEPO expression / Lipid/MC3 hEPO conc. ratio 2 mpk: 2 mpk; for Lipid/MC3 hEPO conc. ratio 0.2 mpk / Lipid/MC3 hEPO conc. ratio 2 mpk: rats, 6 hours; for Lipid/MC3 hEPO expression: 6 hours after administration
How it was run: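 Rats dosed intravenously once with nanoparticle composition, 0.2 or 2.0 mpk, formulated by the standard MC3 method. Tail-vein blood sampled at 6 h or at time points from 0.25 to 48 h. hEPO measured by ELISA.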

IP-10 = test: Cytokine induction in rats after intravenous administration; type: in vivo, rat; settings: rats, 2.0 mpk, 6 hours, hEPO nanoparticle compositions
Experimental: The expression of hEPO and cytokine induction in rats intravenously administered a nanoparticle composition at a dose of 2.0 mpk was measured at 6 h.
Table 19A summarizes the hEPO expression, IP-10 induction, liver and spleen levels, and alanine aminotransferase (ALT) and aspartate aminotransferase (AST) measured upon intravenous administration of formulations including Compounds 48, 49, and 50 to rat at 0.2 and 2 mpk and hEPO mRNA. hEPO concentrations were measured 6 hours after administration, while cytokine induction and liver and spleen levels were measured 48 hours after administration. hEPO and IP-10 concentrations are presented in pg/ml, while liver levels are provided in ng/g. ALT and AST levels are presented in international units.

sC5b-9 = test: Complement activation in vitro (sC5b-9 levels); type: cell-based; settings: human cells contacted in vitro; for sC5b-9 levels relative to saline: in words
Experimental: Complement activation assists in the clearance of pathogens from an organism. As it is undesirable that a subject's body recognize a nanoparticle composition as a foreign invader, low complement system activation upon administration of such a composition is preferred. The complex sC5b-9 is a marker for the activation of the complement system. Thus, human cells were contacted in vitro with nanoparticle compositions according to Table 1A and were evaluated for sC5b-9 levels.

[2] = Chemical stability of lipids in ethanol (lipid purity); type: physicochemical
Experimental: Ester linkages were previously reported to trigger metabolism by esterases in vivo. (See Fukami, T. et al. Drug Metab. Pharmacokinet. 2012, 27, 466-477, the content of which is incorporated by reference herein in its entirety). […] (See Maier M. A., Mol. Ther. 2013, 21, 1570-1578, the content of which is incorporated herein in its entirety) First, the chemical stability of the lipids was evaluated by measuring ethanol stability at room temperature and 37° C. (Table 39). […] LNPs formed with compound 138 were larger, with a surface pKa>7. […] Removal of one ester function (compound 136) afforded LNPs with improved physiochemical characteristics and lower LNP surface pKa.

[3] = Lipid clearance: lipid level in mouse liver tissue (LC-MS/MS); type: in vivo; settings: for % dose remaining Mouse liver tissue, 24 h: CD-1 mouse liver 24 h after 0.5 mg/kg bolus dose mRNA, n = 5 ± S.D.; for original dose remaining in liver tissue 24 hours post dose: mice, intravenous
Experimental: Quantification of Lipid by LC-MS/MS: Liver samples were homogenized following addition of 19 eq. (w/v) of water (DF=20). Protein was precipitated and analyzed against calibration standards prepared in matching blank. Chromatographic separation and quantification was accomplished with a LC-MS/MS System. Samples were injected and separated via HPLC A triple-quadrupole MS/MS system operated in positive ion mode was used for signal detection.

hEPO mRNA [4] = test: hEPO expression after subcutaneous administration to mice; type: in vivo, female CD-1 mice; settings: for Novel lipid/MC3 expression ratio, 6 hr. time point, s.c. hEPO 0.5 mpk: relative to MC3
Experimental: The effect of the lipids of the disclosure on protein expression upon subcutaneous administration was studied. Formulations containing lipids of the disclosure and an mRNA expressing luciferase or hEPO were administered subcutaneously to female CD-1 mice at 0.5 mpk. Expression levels were obtained via whole body luminescent imaging (BLI) at 3, 6 and 24 hours after injection and expression levels in liver, spleen and at the injection site were evaluated ex vivo after 24 hours. […] See also Tables 35 and 36, and FIGS. 19 and 27.
Table 36 summarizes the hEPO expression levels using various nanoparticle compositions of the disclosure as compared to the hEPO expression level using a formulation containing MC3 or Compound 18, following subcutaneous administration, as described above.

[5] = Pharmacokinetics of lipids in mice; type: in vivo; design: AUC / AUCall Mean: concentration or dose not given beside the values; settings: mouse; for AUC: read-out: AUCall Mean; for Tmax: read-out: Tmax
Experimental: FIGS. 45A and 45B are a pair of graphs illustrating pharmacokinetics of lipids of the disclosure in mice. Mice were administered compositions comprising Compound 50 (FIG. 45A) or Compound 301 (FIG. 45B), in nanoparticle compositions containing DSPC and PEG 1.

CCCCCCCCCN(CCO)CCCCCCCC(=O)OC(CCCCCCCC)CCCCCCCC [Compound 3, Heptadecan-9-yl 8-((2-hydroxyethyl)(nonyl)amino)octanoate]
hEPO expression (hEPO mRNA [1]; rat): 1.74e+07 pg/mL | Lipid/MC3 hEPO conc. ratio 0.2 mpk (hEPO mRNA [1]; intravenous, 0.2 mpk): 2.41 | Lipid/MC3 hEPO conc. ratio 2 mpk (hEPO mRNA [1]; intravenous): 1.21 | IP-10 (IP-10): 542 pg/mL

CCCCC/C=C\C/C=C\CCCCCCCCN(CCO)CCCCCCCC(=O)OC(CCCCCCCC)CCCCCCCC [Compound 6, Heptadecan-9-yl 8-((2-hydroxyethyl)((9Z,12Z)-octadeca-9,12-dien-1-yl)amino)octanoate]
Fold increase in sC5b-9 levels versus saline (sC5b-9): 1.39 | sC5b-9 levels relative to saline (sC5b-9): somewhat increase | Lipid Purity ([2]; t = 0): 93.80% | Lipid Purity ([2]; t = 96 h, 25° C.): 93.21% | Lipid Purity ([2]; t = 96 h, 37° C.): 94.29% | % dose remaining Mouse liver tissue, 24 h [3]: 67 ± 9.8% | original dose remaining in liver tissue 24 hours post dose [3]: 67%

CCCCCC/C=C\COC(=O)CCCCCCCN(CCO)CCCCCCCC(=O)OC(CCCCCCCC)CCCCCCCC [Compound 24, Heptadecan-9-yl (Z)-8_((2-hydroxyethyl) (8-(non-2-en-1-yloxy)-8-oxooctyl)amino)octanoate]
Fold increase in sC5b-9 levels versus saline (sC5b-9): 0.81 | sC5b-9 levels relative to saline (sC5b-9): slightly decrease | hEPO expression (hEPO mRNA [1]; rat): 1.44e+07 pg/mL | Lipid/MC3 hEPO conc. ratio 0.2 mpk (hEPO mRNA [1]; intravenous, 0.2 mpk): 1.75 | Lipid/MC3 hEPO conc. ratio 2 mpk (hEPO mRNA [1]; intravenous): 1.01 | IP-10 (IP-10): 323.5 pg/mL

CCCCCCCCCCCOC(=O)CCCCCN(CCO)CCCCCCCC(=O)OC(CCCCCCCC)CCCCCCCC [Compound 25, Heptadecan-9-yl 8-((2-hydroxyethyl)(6-oxo-6-(undecyloxy)hexyl)amino)octanoate]
Fold increase in sC5b-9 levels versus saline (sC5b-9): 1.02 | Lipid Purity ([2]; t = 0): 95.58% | Lipid Purity ([2]; t = 96 h, 25° C.): 96.23% | Lipid Purity ([2]; t = 96 h, 37° C.): 96.13% | Novel lipid/MC3 expression ratio, 6 hr. time point, s.c. hEPO 0.5 mpk (hEPO mRNA [4]): 5.43 | Lipid/MC3 hEPO expression (hEPO mRNA [1]; 0.2 mpk dose to rat): 2.41 | Lipid/MC3 hEPO expression (hEPO mRNA [1]; 2 mpk dose to rat): 2.13 | hEPO expression (hEPO mRNA [1]; rat): 3.05e+07 pg/mL | hEPO expression 0.25 h (hEPO mRNA [1]; rat, intravenous, 0.2 mpk, 0.25 h): 0 pg/mL | hEPO expression 0.5 h (hEPO mRNA [1]; rat, intravenous, 0.2 mpk, 0.5 h): 19553 pg/mL | hEPO expression 1 h (hEPO mRNA [1]; rat, intravenous, 0.2 mpk, 1 h): 434299 pg/mL | hEPO expression 2 h (hEPO mRNA [1]; rat, intravenous, 0.2 mpk, 2 h): 2042807 pg/mL | hEPO expression 4 h (hEPO mRNA [1]; rat, intravenous, 0.2 mpk, 4 h): 3176560 pg/mL | hEPO expression 8 h (hEPO mRNA [1]; rat, intravenous, 0.2 mpk, 8 h): 2631633 pg/mL | hEPO expression 24 h (hEPO mRNA [1]; rat, intravenous, 0.2 mpk, 24 h): 869374 pg/mL | hEPO expression 48 h (hEPO mRNA [1]; rat, intravenous, 0.2 mpk, 48 h): 103089 pg/mL | Lipid/MC3 hEPO conc. ratio 0.2 mpk (hEPO mRNA [1]; intravenous, 0.2 mpk): 2.41 | Lipid/MC3 hEPO conc. ratio 2 mpk (hEPO mRNA [1]; intravenous): 2.13 | IP-10 (IP-10): 533.5 pg/mL | Cmax ([5]; Liver): 17900 ng/mL | HL ([5]; Liver, * = 2 terminal datapoints estimation): 6.9 h | AUC ([5]; Liver): 89200 ng·h/mL | Tmax ([5]; Liver): 1 h | Cmax ([5]; Plasma): 37500 ng/mL | HL ([5]; Plasma): 2.3 h | AUC ([5]; Plasma): 35400 ng·h/mL | Tmax ([5]; Plasma): 0.5 h | Cmax ([5]; Spleen): 20400 ng/mL | HL ([5]; Spleen, * = 2 terminal datapoints estimation): 15.2 h | AUC ([5]; Spleen): 259000 ng·h/mL | Tmax ([5]; Spleen): 4 h

CCCCCCCCCOC(=O)CCCN(CCO)CCCCCCCC(=O)OC(CCCCCCCC)CCCCCCCC [Compound 26, Heptadecan-9-yl 8-((2-hydroxyethyl)(4-(nonyloxy)-4-oxobutyl)amino) octanoate]
Lipid Purity ([2]; t = 0): 98.64% | Lipid Purity ([2]; t = 96 h, 25° C.): 97.38% | Lipid Purity ([2]; t = 96 h, 37° C.): 95.72% | Lipid/MC3 hEPO expression (hEPO mRNA [1]; 2 mpk dose to rat): 4.95 | Lipid/MC3 hEPO conc. ratio 2 mpk (hEPO mRNA [1]; intravenous): 4.95

CCCCCCCCC(CCCCCCCC)OC(=O)CCCCCCCN(CCO)CCCCCCCC(=O)OC(CCCCCCCC)CCCCCCCC [Compound 29, Di(heptadecan-9-yl) 8,8′-((2-hydroxyethyl)azanediyl)dioctanoate]
Fold increase in sC5b-9 levels versus saline (sC5b-9): 0.93 | sC5b-9 levels relative to saline (sC5b-9): slightly decrease | Lipid Purity ([2]; t = 0): 97.017% | Lipid Purity ([2]; t = 96 h, 25° C.): 97.67% | Lipid Purity ([2]; t = 96 h, 37° C.): 98.10% | % dose remaining Mouse liver tissue, 24 h [3]: 68 ± 9.2% | original dose remaining in liver tissue 24 hours post dose [3]: 68%

CCCCCCCCCOC(=O)CCCCCCCN(CCO)CCCCCCCOC(=O)C(CCCCCCCC)CCCCCCCC [Compound 30, 7-((2-Hydroxyethyl)(8-(nonyloxy)-8-oxooctyl)amino)heptyl 2-octyldecanoate]
Fold increase in sC5b-9 levels versus saline (sC5b-9): 0.94 | sC5b-9 levels relative to saline (sC5b-9): slightly decrease | hEPO expression Lipid/Compound 18 ratio, 6 hr. (hEPO mRNA [4]; 0.5 mpk, 6 hr.): 1.35 | hEPO expression Lipid/MC3 ratio, 6 hr. (hEPO mRNA [4]; 0.5 mpk, 6 hr.): 6.53 | hEPO expression Lipid/Compound 18 ratio, AUC (hEPO mRNA [4]; 0.5 mpk, AUC): 1.27 | hEPO expression Lipid/MC3 ratio, AUC (hEPO mRNA [4]; 0.5 mpk, AUC): 6.38 | hEPO expression (hEPO mRNA [1]; rat): 1.63e+07 pg/mL | Lipid/MC3 hEPO conc. ratio 0.2 mpk (hEPO mRNA [1]; intravenous, 0.2 mpk): 1.87 | Lipid/MC3 hEPO conc. ratio 2 mpk (hEPO mRNA [1]; intravenous): 1.14 | IP-10 (IP-10): 214.5 pg/mL

CCCC/C=C\CCC(CC/C=C\CCCC)OC(=O)CCCCCCCN(CCO)CCCCCCCC(=O)OCCCCCCCCC [Compound 60, (5Z,12Z)-Heptadeca-5,12-dien-9-yl 8-((2-hydroxyethyl)(8-(nonyloxy)-8-oxooctyl)amino)octanoate]
Novel lipid/MC3 expression ratio, 6 hr. time point, s.c. hEPO 0.5 mpk (hEPO mRNA [4]): 6.59

CCCCCCCCCOC(=O)CCCCCCCN(CCCCCCCC(=O)OC(CCCCCCCC)CCCCCCCC)CCCNS(C)(=O)=O [Compound 109, Heptadecan-9-yl 8-((3-(methylsulfonamido)propyl)(8-(nonyloxy)-8-oxooctyl)amino)octanoate]
Novel lipid/MC3 expression ratio, 6 hr. time point, s.c. hEPO 0.5 mpk (hEPO mRNA [4]): 6.78

CCCCCCCCCOC(=O)CCCCCCCN(CCCCCCCC(=O)OC(CCCCCCCC)CCCCCCCC)CCCNC(=S)N(C)C [Compound 111, Heptadecan-9-yl 8-((3-(3,3-dimethylthioureido)propyl)(8-(nonyloxy)-8-oxooctyl)amino)octanoate]
Novel lipid/MC3 expression ratio, 6 hr. time point, s.c. hEPO 0.5 mpk (hEPO mRNA [4]): 6.40

CCCCC/C=C\C/C=C\CCCCCCCCN(CCO)CCCCCCCC(=O)OCCCCCCCCC [Compound 136, Nonyl 8-((2-hydroxyethyl)((9Z,12Z)-octadeca-9,12-dien-1-yl)amino)octanoate]
Fold increase in sC5b-9 levels versus saline (sC5b-9): 0.69 | Lipid Purity ([2]; t = 0): 91.81% | Lipid Purity ([2]; t = 96 h, 25° C.): 93.17% | Lipid Purity ([2]; t = 96 h, 37° C.): 93.86% | % dose remaining Mouse liver tissue, 24 h [3]: 0%

CCCCCCCCCOC(=O)CCCCCCCN(CCO)CCCCCCCC(=O)OCCCCCCCCC [Compound 138, Dinonyl 8,8′-((2-hydroxyethyl)azanediyl)dioctanoate]
Lipid Purity ([2]; t = 0): 97.59% | Lipid Purity ([2]; t = 96 h, 25° C.): 98.64% | Lipid Purity ([2]; t = 96 h, 37° C.): 97.82% | % dose remaining Mouse liver tissue, 24 h [3]: 0% | original dose remaining in liver tissue 24 hours post dose [3]: no lipid detected

CCCCCCCC/C=C\COC(=O)CCCCCN(CCO)CCCCCC(=O)OC/C=C\CCCCCCCC [Compound 140, Di((Z)-undec-2-en-1-yl) 6,6′-((2-hydroxyethyl)azanediyl)dihexanoate]
Fold increase in sC5b-9 levels versus saline (sC5b-9): 0.75

CCCCCCCCCOC(=O)CCCCCCCN(CCO)CCCCCCCCCC(=O)OC(CCCCCC)CCCCCC [Compound 147, Tridecan-7-yl 10-((2-hydroxyethyl)(8-(nonyloxy)-8-oxooctyl)amino)decanoate]
AUC (hEPO) (hEPO mRNA [1]; Table 19B): 7.28e+07 pg·h/mL | Lipid/MC3 ([hEPO] ratio) (hEPO mRNA [1]; Table 19B, relative to MC3): 3.69 | Lipid/MC3 AUC (hEPO mRNA [1]; Table 19B, relative to MC3): 3.94 | [hEPO] (hEPO mRNA [1]; Table 19B, species, dose and time not given): 5.45e+06 pg/mL
